Experimental data published in PubChem BioAssay (NCI).
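Cells were grown in 96-well plates and exposed to each compound for 48 hours at five concentrations; endpoints were interpolated linearly between bracketing concentrations, or set to the highest concentration if not reached. At the GI50, growth is halved. TGI is the concentration that stops growth completely.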

Experiments:
Test in all cases: NCI tumour cell line growth inhibition, 48 h
CAKI-1 renal = system: CAKI-1 renal
COLO 205 colon = system: COLO 205 colon
EKVX NSCLC = system: EKVX NSCLC
HT29 colon = system: HT29 colon
MCF7 breast = system: MCF7 breast
RPMI-8226 leukemia = system: RPMI-8226 leukemia
786-0 renal = system: 786-0 renal
A498 renal = system: A498 renal
A549 NSCLC = system: A549 NSCLC
ACHN renal = system: ACHN renal
BT-549 breast = system: BT-549 breast
CCRF-CEM leukemia = system: CCRF-CEM leukemia
DU-145 prostate = system: DU-145 prostate
HCC-2998 colon = system: HCC-2998 colon
HCT-116 colon = system: HCT-116 colon
HCT-15 colon = system: HCT-15 colon
HL-60(TB) leukemia = system: HL-60(TB) leukemia
HOP-62 NSCLC = system: HOP-62 NSCLC
HOP-92 NSCLC = system: HOP-92 NSCLC
HS 578T breast = system: HS 578T breast
IGROV1 ovarian = system: IGROV1 ovarian
K-562 leukemia = system: K-562 leukemia
KM12 colon = system: KM12 colon
LOX IMVI melanoma = system: LOX IMVI melanoma
M14 melanoma = system: M14 melanoma
MALME-3M melanoma = system: MALME-3M melanoma
MDA-MB-231 breast = system: MDA-MB-231 breast
MDA-MB-435 = system: MDA-MB-435
MOLT-4 leukemia = system: MOLT-4 leukemia
NCI-H23 lung = system: NCI-H23 lung
NCI-H460 lung = system: NCI-H460 lung
NCI-H522 lung = system: NCI-H522 lung
NCI/ADR-RES ovarian = system: NCI/ADR-RES ovarian
OVCAR-3 ovarian = system: OVCAR-3 ovarian
OVCAR-4 ovarian = system: OVCAR-4 ovarian
OVCAR-5 ovarian = system: OVCAR-5 ovarian
OVCAR-8 ovarian = system: OVCAR-8 ovarian
PC-3 prostate = system: PC-3 prostate
RXF 393 renal = system: RXF 393 renal
SF-268 CNS = system: SF-268 CNS
SF-295 CNS = system: SF-295 CNS
SF-539 CNS = system: SF-539 CNS
SK-MEL-2 melanoma = system: SK-MEL-2 melanoma
SK-MEL-28 melanoma = system: SK-MEL-28 melanoma
SK-MEL-5 melanoma = system: SK-MEL-5 melanoma
SK-OV-3 ovarian = system: SK-OV-3 ovarian
SN12C renal = system: SN12C renal
SNB-19 CNS = system: SNB-19 CNS
SNB-75 CNS = system: SNB-75 CNS
SW-620 colon = system: SW-620 colon
T-47D breast = system: T-47D breast
TK-10 renal = system: TK-10 renal
U251 CNS = system: U251 CNS
UACC-257 melanoma = system: UACC-257 melanoma
UACC-62 melanoma = system: UACC-62 melanoma
UO-31 renal = system: UO-31 renal

`Cc1cc(N)c2ccccc2[n+]1CCCCCCCCCCNc1cc(C)[n+](CCCCCCCCCC[n+]2c(C)cc(N)c3ccccc32)c2ccccc12` was tested, and the TGI (CAKI-1 renal) was greater than 100 µM, the TGI (COLO 205 colon) was greater than 100000 nM and the TGI (EKVX NSCLC) was 33.7 µM. It also gave a TGI (HT29 colon) of 29 µM, a TGI (MCF7 breast) greater than 100000 nM and a TGI (RPMI-8226 leukemia) of 1520 nM.
With `CC1=C([Te]c2ccccc2)C(=O)c2ccccc2C1=O` the GI50 (786-0 renal) was 2010 nM, the TGI (786-0 renal) was 3.96 µM and the GI50 (A498 renal) was 239 nM. The TGI (A498 renal) was 977 nM, the GI50 (A549 NSCLC) was 298 nM and the TGI (A549 NSCLC) was 1230 nM. For the same compound, the GI50 (ACHN renal) was 454 nM, the TGI (ACHN renal) was 1610 nM and the GI50 (BT-549 breast) was 232 nM. The TGI (BT-549 breast) was 842 nM, the GI50 (CAKI-1 renal) was 974 nM and the TGI (CAKI-1 renal) was 3.2 µM. It also gave a GI50 (CCRF-CEM leukemia) of 312 nM, a TGI (CCRF-CEM leukemia) of 3.3 µM and a GI50 (COLO 205 colon) of 457 nM. The TGI (COLO 205 colon) was 1450 nM, the GI50 (DU-145 prostate) was 424 nM and the TGI (DU-145 prostate) was 1580 nM. The GI50 (EKVX NSCLC) was 207 nM, the TGI (EKVX NSCLC) was 0.76 µM and the GI50 (HCC-2998 colon) was 483 nM. The TGI (HCC-2998 colon) was 1550 nM, the GI50 (HCT-116 colon) was 284 nM and the TGI (HCT-116 colon) was 901 nM. For the same compound, the GI50 (HCT-15 colon) was 346 nM, the TGI (HCT-15 colon) was 1560 nM and the GI50 (HL-60(TB) leukemia) was 326 nM. For the same compound, the TGI (HL-60(TB) leukemia) was 1540 nM, the GI50 (HOP-62 NSCLC) was 266 nM and the TGI (HOP-62 NSCLC) was 762 nM. For the same compound, the GI50 (HOP-92 NSCLC) was 315 nM, the TGI (HOP-92 NSCLC) was 1390 nM and the GI50 (HS 578T breast) was 303 nM. It also gave a TGI (HS 578T breast) of 2460 nM, a GI50 (HT29 colon) of 344 nM and a TGI (HT29 colon) of 1.36 µM. For the same compound, the GI50 (IGROV1 ovarian) was 500 nM, the TGI (IGROV1 ovarian) was 1820 nM and the GI50 (K-562 leukemia) was 1070 nM. The TGI (K-562 leukemia) was 3.4 µM, the GI50 (KM12 colon) was 337 nM and the TGI (KM12 colon) was 1210 nM. It also gave a GI50 (LOX IMVI melanoma) of 311 nM, a TGI (LOX IMVI melanoma) of 1490 nM and a GI50 (M14 melanoma) of 424 nM. It also gave a TGI (M14 melanoma) of 1760 nM, a GI50 (MALME-3M melanoma) of 1790 nM and a TGI (MALME-3M melanoma) of 3.56 µM. The GI50 (MCF7 breast) was 249 nM, the TGI (MCF7 breast) was 943 nM and the GI50 (MDA-MB-231 breast) was 227 nM. It also gave a TGI (MDA-MB-231 breast) of 573 nM, a GI50 (MDA-MB-435) of 1800 nM and a TGI (MDA-MB-435) of 4.02 µM. It also gave a GI50 (MOLT-4 leukemia) of 287 nM, a TGI (MOLT-4 leukemia) of 1300 nM and a GI50 (NCI-H23 lung) of 298 nM. It also gave a TGI (NCI-H23 lung) of 1050 nM, a GI50 (NCI-H460 lung) of 177 nM and a TGI (NCI-H460 lung) of 391 nM. The GI50 (NCI-H522 lung) was 909 nM, the TGI (NCI-H522 lung) was 4.24 µM and the GI50 (NCI/ADR-RES ovarian) was 426 nM. It also gave a TGI (NCI/ADR-RES ovarian) of 2630 nM, a GI50 (OVCAR-3 ovarian) of 1040 nM and a TGI (OVCAR-3 ovarian) of 2230 nM. It also gave a GI50 (OVCAR-4 ovarian) of 1630 nM, a TGI (OVCAR-4 ovarian) of 3.53 µM and a GI50 (OVCAR-5 ovarian) of 283 nM. For the same compound, the TGI (OVCAR-5 ovarian) was 860 nM, the GI50 (OVCAR-8 ovarian) was 374 nM and the TGI (OVCAR-8 ovarian) was 4.35 µM. For the same compound, the GI50 (PC-3 prostate) was 297 nM, the TGI (PC-3 prostate) was 2030 nM and the GI50 (RPMI-8226 leukemia) was 275 nM. The TGI (RPMI-8226 leukemia) was 1310 nM, the GI50 (RXF 393 renal) was 1140 nM and the TGI (RXF 393 renal) was 4.63 µM. The GI50 (SF-268 CNS) was 383 nM, the TGI (SF-268 CNS) was 1640 nM and the GI50 (SF-295 CNS) was 240 nM. The TGI (SF-295 CNS) was 697 nM, the GI50 (SF-539 CNS) was 146 nM and the TGI (SF-539 CNS) was 1030 nM. For the same compound, the GI50 (SK-MEL-2 melanoma) was 2370 nM, the TGI (SK-MEL-2 melanoma) was 5.58 µM and the GI50 (SK-MEL-28 melanoma) was 1250 nM. It also gave a TGI (SK-MEL-28 melanoma) of 3.11 µM, a GI50 (SK-MEL-5 melanoma) of 799 nM and a TGI (SK-MEL-5 melanoma) of 2030 nM. The GI50 (SK-OV-3 ovarian) was 335 nM, the TGI (SK-OV-3 ovarian) was 1280 nM and the GI50 (SN12C renal) was 311 nM. The TGI (SN12C renal) was 1470 nM, the GI50 (SNB-19 CNS) was 551 nM and the TGI (SNB-19 CNS) was 2560 nM. The GI50 (SNB-75 CNS) was 207 nM, the TGI (SNB-75 CNS) was 898 nM and the GI50 (SW-620 colon) was 475 nM. The TGI (SW-620 colon) was 1740 nM, the GI50 (T-47D breast) was 488 nM and the TGI (T-47D breast) was 2780 nM. It also gave a GI50 (TK-10 renal) of 1710 nM, a TGI (TK-10 renal) of 4.05 µM and a GI50 (U251 CNS) of 331 nM. The TGI (U251 CNS) was 1560 nM, the GI50 (UACC-257 melanoma) was 2230 nM and the TGI (UACC-257 melanoma) was 5.92 µM. For the same compound, the GI50 (UACC-62 melanoma) was 1430 nM, the TGI (UACC-62 melanoma) was 3.8 µM and the GI50 (UO-31 renal) was 246 nM. For the same compound, the TGI (UO-31 renal) was 1120 nM.
